In general, IC50 refers to the midpoint of a concentration-inhibition curve.

The test system of the assay is HBeAg (surrogate marker for cccDNA) in HepDES19 cells. The assay is described as follows: Engineered HepDES19 primary screen assay (HBeAg ELISA). It is filed as cell-based, HBV. As to conditions: Hepatitis B virus, HepDES19, 120 h, read-out: IC50 (HBeAg level, HepDES19 primary screen assay). The text has this:
The assay was employed to screen for novel cccDNA inhibitors. HepDES19 is a cccDNA-producing cell line. In this cell line, HBeAg in the cell culture supernatant as surrogate marker, as HBeAg production depends on cccDNA level and activity. HepDES19 is an engineered cell line which contains a 1.1 unit length HBV genome, and pgRNA transcription from the transgene is controlled by Tetracycline (Tet). In the absence of Tet, pgRNA transcription will be induced, but HBV e antigen (HBeAg) could not be produced from this pgRNA due to very short leader sequence before the HBeAg start codon and the start codon is disrupted. Only after cccDNA is formed, the missing leader sequence and start codon mutation would be restored from the 3′-terminal redundancy of pgRNA, and then HBeAg could be synthesized. Therefore, HBeAg could be used as a surrogate marker for cccDNA (Zhou, T. et al., Antiviral Res. (2006), 72(2), 116-124; Guo, H. et al., J. Virol. (2007), 81(22), 12472-12484).
HepDES19 cells were seeded at 2×10^6 cells per T150 flask and cultured with the culture medium (Dulbecco's Modified Eagle Medium: Nutrient Mixture F-12 [DMEM-F12, Gibco Cat. 11320-82], 10% Fetal Bovine Serum [FBS, Clontech Cat. 631101], 0.1 mM Non-Essential Amino Acids Solution [NEAA, Gibco Cat. 11140-050], 50 μg/mL Penicillin-Streptomycin [PS, Invitrogen Cat. 15140-163], 500 μg/mL Geneticin [G418, Invitrogen Cat. 10131-027]) containing 3 μg/mL Tet (Sigma, Cat. 87128) for 5 days. Cells were then seeded at 4×10^6 cells per T150 in the same culture medium as described above in the absence of Tet for 8 days. Cells were then harvested and frozen at density of 2×10^6 cells per ML. For compound testing, the frozen cells were thawed and seeded into 96-well plates at a density of 6×10^4 cells per well. At 24 hours after seeding, half log serial dilutions of compounds made with Dimethyl sulfoxide (DMSO, Sigma, Cat. D2650) were further diluted with the same culture medium as described above before they were added to the cells to reach desired final compound concentrations and 1% DMSO concentration. Plates were then incubated at 37° C. for another 5 days before measurement of HBeAg level and cell viability. Intracellular HBeAg level were measured with enzyme-linked immunosorbent assay (ELISA) kit (Shanghai Kehua Diagnostic Medical Products Co., Ltd). Cell viability was assessed using Cell Counting Kit-8 (DonJindo, Cat. CK04-20). IC50 values were derived from the dose-response curve using 4 parameter logistic curve fit method.
The compounds of the present invention were tested for their capacity to inhibit extracellular HBeAg level as described herein.
In general terms: ELISA stands for enzyme-linked immunosorbent assay.
On to `COc1cc(Br)c(OCCC(=O)NS(=O)(=O)C2CC2)cc1-c1cc(=O)c2cccc(Cl)c2o1` [Example 3, 3-[2-Bromo-5-(8-chloro-4-oxo-chromen-2-yl)-4-methoxy-phenoxy]-N-cyclopropylsulfonyl-propanamide], for which the IC50 worked out at 580 nM.

Take `COc1cc(Br)c(OCC(=O)O)cc1-c1cc(=O)c2cccc(Cl)c2o1` [Example 4, 2-[2-Bromo-5-(8-chloro-4-oxo-chromen-2-yl)-4-methoxy-phenoxy]acetic acid]: the IC50 is 1960 nM.

In the case of `COc1cc(Br)c(OCCCOCC(=O)O)cc1-c1cc(=O)c2cccc(Cl)c2o1` [Example 6, 2-[3-[2-Bromo-5-(8-chloro-4-oxo-chromen-2-yl)-4-methoxy-phenoxy]propoxy]acetic acid], the IC50 was found to be 1660 nM.

On to `COc1cc(Cl)c(OC2CC(C(=O)O)C2)cc1-c1cc(=O)c2cccc(Cl)c2o1` (stereo not shown) [Example 7, 3-[2-Chloro-5-(8-chloro-4-oxo-chromen-2-yl)-4-methoxy-phenoxy]cyclobutanecarboxylic acid], for which the concentration for half-maximal inhibition (IC50) came to 4510 nM.

As for `COc1cc(C)c(OCCOC2CC(C(=O)O)C2)cc1-c1cc(=O)c2cccc(Cl)c2o1` (stereo not shown) [Example 9, 3-[2-[5-(8-Chloro-4-oxo-chromen-2-yl)-4-methoxy-2-methyl-phenoxy]ethoxy]cyclobutanecarboxylic acid], the concentration for half-maximal inhibition (IC50) came out at 5200 nM.

On to `COc1cc(C)c(OCCC(=O)O)cc1-c1cc(=O)c2cccc(Cl)c2o1` [Example 10, 3-[5-(8-Chloro-4-oxo-chromen-2-yl)-4-methoxy-2-methyl-phenoxy]propanoic acid], for which the 50% inhibitory concentration (IC50) worked out at 1540 nM.

For `COc1cc(OC)c(-c2cc(=O)c3cccc(Cl)c3o2)cc1OC1CC(C(=O)O)C1` (stereo not shown) [Example 12, 3-[5-(8-Chloro-4-oxo-chromen-2-yl)-2,4-dimethoxy-phenoxy]cyclobutanecarboxylic acid], the concentration for half-maximal inhibition (IC50) turned out to be 620 nM.

Regarding `COc1cc(OC)c(-c2cc(=O)c3cccc(Cl)c3o2)cc1OCCOC1CC(C(=O)O)C1` (stereo not shown) [Example 13, 3-[2-[5-(8-Chloro-4-oxo-chromen-2-yl)-2,4-dimethoxy-phenoxy]ethoxy]cyclobutanecarboxylic acid], the IC50 was 190 nM.

In the case of `Cc1ccc(-c2cc(=O)c3cccc(Cl)c3o2)cc1OCC(=O)O` [Example 14, 2-[5-(8-Chloro-4-oxo-chromen-2-yl)-2-methyl-phenoxy]acetic acid], the IC50 turned out to be 6320 nM.

As for `Cc1ccc(-c2cc(=O)c3cccc(Cl)c3o2)cc1O[C@H]1C[C@H](C(=O)O)C1` [Example 16, trans-3-[5-(8-chloro-4-oxo-chromen-2-yl)-2-methyl-phenoxy]cyclobutanecarboxylic acid], the 50% inhibitory concentration (IC50) came to 6360 nM.

Turning to `COc1ccc(-c2cc(=O)c3cccc(Cl)c3o2)cc1OC1CC(C(=O)O)C1` (stereo not shown) [Example 17, 3-[5-(8-Chloro-4-oxo-chromen-2-yl)-2-methoxy-phenoxy]cyclobutanecarboxylic acid], the IC50 worked out at 720 nM.

As for `COc1ccc(-c2cc(=O)c3cccc(Cl)c3o2)cc1OCCOC1CC(C(=O)O)C1` (stereo not shown) [Example 18, 3-[2-[5-(8-Chloro-4-oxo-chromen-2-yl)-2-methoxy-phenoxy]ethoxy]cyclobutanecarboxylic acid], the IC50 was 520 nM.

Take `COc1ccc(-c2cc(=O)c3cccc(Cl)c3o2)cc1OCCC(=O)O` [Example 19, 3-[5-(8-Chloro-4-oxo-chromen-2-yl)-2-methoxy-phenoxy]propanoic acid]: the IC50 was found to be 7930 nM.

On to `O=c1cc(-c2ccc(C(F)(F)F)c(O[C@H]3C[C@@H](C(=O)O)C3)c2)oc2c(Cl)cccc12` [Example 20, Cis-3-[5-(8-chloro-4-oxo-chromen-2-yl)-2-(trifluoromethyl)phenoxy]cyclobutanecarboxylic acid], for which the concentration for half-maximal inhibition (IC50) amounted to 2140 nM.

For `O=c1cc(-c2ccc(C(F)(F)F)c(O[C@H]3C[C@H](C(=O)O)C3)c2)oc2c(Cl)cccc12` [Example 21, trans-3-[5-(8-chloro-4-oxo-chromen-2-yl)-2-(trifluoromethyl)phenoxy]cyclobutanecarboxylic acid], the IC50 worked out at 4120 nM.

With `COc1cc(-c2cc(=O)c3cccc(Cl)c3o2)cc(O[C@H]2C[C@@H](C(=O)O)C2)c1OC` [Example 23, Cis-3-[5-(8-chloro-4-oxo-chromen-2-yl)-2,3-dimethoxy-phenoxy]cyclobutanecarboxylic acid], the half-maximal inhibitory concentration (IC50) is 7360 nM.

Consider `COc1cc(-c2cc(=O)c3cccc(Cl)c3o2)cc(OCCO[C@H]2C[C@H](C(=O)O)C2)c1OC` [Example 24, Trans-3-[2-[5-(8-chloro-4-oxo-chromen-2-yl)-2,3-dimethoxy-phenoxy]ethoxy]cyclobutanecarboxylic acid], for which the IC50 was found to be 1460 nM.

Turning to `COc1cc(-c2cc(=O)c3cccc(Cl)c3o2)cc(OCC(=O)O)c1OC` [Example 25, 2-[5-(8-Chloro-4-oxo-chromen-2-yl)-2,3-dimethoxy-phenoxy]acetic acid], the IC50 was 7510 nM.

`COc1cc(Br)c(-c2cc(=O)c3cccc(Cl)c3o2)cc1O[C@H]1C[C@H](C(=O)O)C1` [Example 26, Trans-3-[4-bromo-5-(8-chloro-4-oxo-chromen-2-yl)-2-methoxy-phenoxy]cyclobutanecarboxylic acid]: the IC50 was determined as 1070 nM.

For the compound `COc1cc(Br)c(-c2cc(=O)c3cccc(Cl)c3o2)cc1OCCO[C@H]1C[C@H](C(=O)O)C1` [Example 27, Trans-3-[2-[4-Bromo-5-(8-chloro-4-oxo-chromen-2-yl)-2-methoxy-phenoxy]ethoxy]cyclobutanecarboxylic acid], the IC50 was 3240 nM.

As to `COc1c(OC2CC(C(=O)O)C2)cccc1-c1cc(=O)c2cccc(Cl)c2o1` (stereo not shown) [Example 28, 3-[3-(8-Chloro-4-oxo-chromen-2-yl)-2-methoxy-phenoxy]cyclobutanecarboxylic acid], the IC50 was found to be 560 nM.

With `COc1c(OCCO[C@H]2C[C@@H](C(=O)O)C2)cccc1-c1cc(=O)c2cccc(Cl)c2o1` [Example 29, Cis-3-[2-[3-(8-chloro-4-oxo-chromen-2-yl)-2-methoxy-phenoxy]ethoxy]cyclobutanecarboxylic acid], the IC50 came out at 3240 nM.

On to `COc1ccc(OC2CC(C(=O)O)C2)cc1-c1cc(=O)c2cccc(Cl)c2o1` (stereo not shown) [Example 30, 3-[3-(8-Chloro-4-oxo-chromen-2-yl)-4-methoxy-phenoxy]cyclobutanecarboxylic acid], for which the IC50 stood at 7510 nM.

Turning to `COc1ccc(OCC(=O)O)cc1-c1cc(=O)c2cccc(Cl)c2o1` [Example 32, 2-[3-(8-Chloro-4-oxo-chromen-2-yl)-4-methoxy-phenoxy]acetic acid], the concentration for half-maximal inhibition (IC50) is 7130 nM.

As to `COc1ccc(OCCC(=O)O)cc1-c1cc(=O)c2cccc(Cl)c2o1` [Example 33, 3-[3-(8-Chloro-4-oxo-chromen-2-yl)-4-methoxy-phenoxy]propanoic acid], the half-inhibitory concentration (IC50) came out at 6750 nM.

For the compound `COc1c(-c2cc(=O)c3cccc(Cl)c3o2)ccc(Br)c1OCCO[C@H]1C[C@@H](C(=O)O)C1` [Example 34, Cis-3-[2-[6-bromo-3-(8-chloro-4-oxo-chromen-2-yl)-2-methoxy-phenoxy]ethoxy]cyclobutanecarboxylic acid], the 50% inhibitory concentration (IC50) was 940 nM.

As for `COc1c(-c2cc(=O)c3cccc(Cl)c3o2)ccc(Cl)c1OCC(=O)O` [Example 37, 2-[6-Chloro-3-(8-chloro-4-oxo-chromen-2-yl)-2-methoxy-phenoxy]acetic acid], the half-inhibitory concentration (IC50) was 10100 nM.

With `COc1ccc(-c2cc(=O)c3cccc(Cl)c3o2)c(OC)c1OCC(=O)O` [Example 38, 2-[3-(8-Chloro-4-oxo-chromen-2-yl)-2,6-dimethoxy-phenoxy]acetic acid], the IC50 is 1130 nM.

As for `CCOc1cc(Br)c(OCCC(=O)O)cc1-c1cc(=O)c2cccc(Cl)c2o1` [Example 39, 3-[2-Bromo-5-(8-chloro-4-oxo-chromen-2-yl)-4-ethoxy-phenoxy]propanoic acid], the 50% inhibitory concentration (IC50) was 110 nM.

`O=C(O)CCOc1cc(-c2cc(=O)c3cccc(Cl)c3o2)c(OC(F)F)cc1Br` [Example 40, 3-[2-Bromo-5-(8-chloro-4-oxo-chromen-2-yl)-4-(difluoromethoxy)phenoxy]propanoic acid]: the IC50 worked out at 1390 nM.

Take `O=C(O)CCOc1cc(-c2cc(=O)c3cccc(Cl)c3o2)c(F)cc1Br` [Example 41, 3-[2-Bromo-5-(8-chloro-4-oxo-chromen-2-yl)-4-fluoro-phenoxy]propanoic acid]: the IC50 turned out to be 133 nM.

The values above are taken from patent US20220213049A1, “S[…]-4-ONE FOR THE TREATMENT AND PROPHYLAXIS OF HEPATITIS B VIRUS INFECTION” (priority 2019, published 2022).
